Entries after “also recorded” stand apart in the source; their conditions may differ.
Assays:
[1] = tested on: TNFR-Fc producing cells (CHO cell lines); experiment: Betaine in 1 L bioreactor cultures of TNFR-Fc producing CHO cells at production osmolality; format: cell-based, Chinese hamster
Protocol: TNFR-Fc production in some CHO cell lines results in greater quantities of recombinant protein product but with lower viability than other cell lines during the final days of the run. The decreased viability correlates with increased protease activity in the culture supernatant, a result of dying cells releasing proteases into the media, which decreases stability of the final purified product. The current study was performed to determine if betaine could prolong viability at production osmolality (250-280 mOsm initial value).
The bioreactors used for this study were stirred vessels with a 1 liter working volume, with temperature, pH and dO2 control. The medium was serum-free with bicarbonate, IGF-1 (LongR3; GroPep, Australia), intralipids and peptones added. Betaine was added to 1 L bioreactor cultures of TNFR-Fc producing cells at 0, 10, 20, 30, and 40 mM with the osmolality of each culture adjusted to 270 to 280 mOsm with an appropriate amount of NaCl. The reactors were induced to express recombinant protein on day 2 by reducing the temperature and adding butyrate to 0.5 mM. Daily samples were taken for analysis of metabolic and productivity parameters.
The ability of induced cells to produce TNFR:Fc was not decreased in the presence of betaine.

cell cultures = settings: physiological osmolality, 292 mOsm/kg; cited from earlier work

Structure (SMILES): C[N+](C)(C)CC(=O)O [betaine]
- cell viability (viable cells as percentage of living cells over total cells, trypan blue exclusion; VCD profiles) ([1]; betaine 0, 10, 20, 30, 40 mM, serum-free medium, osmolality 270 to 280 mOsm, most noticeable after day 5 (FIG. 1)): increases cell viability; also recorded: positive effect on cell viability
- concentration dependence of the viability effect ([1]; betaine 10-40 mM, higher concentrations than 30 mM did not increase viability as much): titration effect up to 30 mM
- ability of induced cells to produce TNFR:Fc ([1]; in the presence of betaine, induced on day 2 by reduced temperature and 0.5 mM butyrate): not decreased
- increase in percentage of secreted recombinant polypeptide having the desired conformation (native conformation and dimerized) ([1]; in the presence of betaine, measured by hydrophobic interaction chromatography (HIC) against known controls): 17.7%
- effect on cell culture growth or maximum viable cell concentration (cell cultures): no effect
